Data as given in ChEMBL document CHEMBL6127040, “Discovery and optimization of isoliquiritigenin as a death-associated protein kinase 1 inhibitor” (Eur J Med Chem, 2024).

What was measured:
[1] = biological target: Death-associated protein kinase 1 (Homo sapiens) (UniProt P53355)
Description: Binding affinity to DAPK1 (unknown origin) assessed as change in Gibbs free energy by ITC analysis

[2] = biological target: Death-associated protein kinase 1 (Homo sapiens) (UniProt P53355); remark: listed apart in the source
Description: Binding affinity to DAPK1 (unknown origin) assessed as change in entropy by ITC analysis

[3] = biological target: Death-associated protein kinase 1 (Homo sapiens) (UniProt P53355); remark: listed apart in the source
Description: Binding affinity to DAPK1 (unknown origin) assessed as change in enthalpy by ITC analysis

Death-associated protein kinase 1 (Homo sapiens), sequence (P53355 whole entry, looked up): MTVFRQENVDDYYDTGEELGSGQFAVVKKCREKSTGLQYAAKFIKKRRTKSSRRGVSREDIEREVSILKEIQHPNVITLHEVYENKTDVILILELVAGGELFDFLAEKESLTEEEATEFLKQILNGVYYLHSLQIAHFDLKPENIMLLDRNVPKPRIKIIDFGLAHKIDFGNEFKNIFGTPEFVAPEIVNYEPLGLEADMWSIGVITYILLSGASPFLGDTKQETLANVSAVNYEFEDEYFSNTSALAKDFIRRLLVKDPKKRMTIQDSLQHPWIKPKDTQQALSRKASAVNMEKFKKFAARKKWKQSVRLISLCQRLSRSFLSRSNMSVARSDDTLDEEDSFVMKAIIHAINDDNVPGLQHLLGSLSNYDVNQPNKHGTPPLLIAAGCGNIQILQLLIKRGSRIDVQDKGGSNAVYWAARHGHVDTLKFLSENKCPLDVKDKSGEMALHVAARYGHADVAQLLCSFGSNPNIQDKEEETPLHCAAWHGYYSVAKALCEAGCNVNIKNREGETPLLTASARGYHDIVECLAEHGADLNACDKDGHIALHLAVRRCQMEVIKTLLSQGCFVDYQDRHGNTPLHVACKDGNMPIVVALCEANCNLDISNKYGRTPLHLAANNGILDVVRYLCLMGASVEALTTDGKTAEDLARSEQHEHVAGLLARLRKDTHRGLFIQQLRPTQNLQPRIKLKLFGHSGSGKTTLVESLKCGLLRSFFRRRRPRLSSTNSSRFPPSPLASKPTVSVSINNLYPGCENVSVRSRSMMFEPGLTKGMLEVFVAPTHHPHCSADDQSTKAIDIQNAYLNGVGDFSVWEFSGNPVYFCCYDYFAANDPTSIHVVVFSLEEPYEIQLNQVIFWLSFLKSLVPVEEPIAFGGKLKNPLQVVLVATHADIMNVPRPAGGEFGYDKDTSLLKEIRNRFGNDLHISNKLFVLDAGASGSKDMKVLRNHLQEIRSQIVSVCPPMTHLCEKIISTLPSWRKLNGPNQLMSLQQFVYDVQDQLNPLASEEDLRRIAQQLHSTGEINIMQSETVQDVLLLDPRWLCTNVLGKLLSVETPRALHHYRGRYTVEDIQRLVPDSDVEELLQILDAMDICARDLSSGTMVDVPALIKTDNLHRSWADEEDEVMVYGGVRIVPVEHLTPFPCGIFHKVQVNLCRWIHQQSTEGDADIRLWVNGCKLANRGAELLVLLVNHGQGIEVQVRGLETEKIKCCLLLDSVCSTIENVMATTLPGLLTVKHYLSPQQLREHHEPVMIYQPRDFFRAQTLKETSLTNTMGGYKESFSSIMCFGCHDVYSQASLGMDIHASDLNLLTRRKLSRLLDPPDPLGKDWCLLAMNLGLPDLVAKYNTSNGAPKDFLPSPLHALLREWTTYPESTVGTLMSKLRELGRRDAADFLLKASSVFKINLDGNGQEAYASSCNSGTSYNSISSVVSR

What does the source list for `O=C(/C=C/c1ccc(O)cc1)c1ccc(O)cc1O`?
deltaG [1]: -32 kJ/mol; -TdeltaS [2]: 7.95 kJ/mol; deltaH [3]: -40 kJ/mol
